Measurements: ChEMBL document CHEMBL1149732, “New bioactive metabolites from a freshwater isolate of the fungus Kirschsteiniothelia sp” (1992)
Converted amounts (≈) assume the structure as drawn. The source made the active and inactive calls. No cut-off for these calls is given here.

What was measured:
Staphylococcus aureus [1] = assay: Antimicrobial activity against Staphylococcus aureus at 1 ug/disk by disk assay; format: functional, organism-based
Bacillus subtilis [2] = assay: Antimicrobial activity against Bacillus subtilis at 5 ug/disk by disk assay; format: functional, organism-based
Staphylococcus aureus [3] = assay: Antimicrobial activity against Staphylococcus aureus at 10 ug/disk by disk assay; format: functional, organism-based
HT-29 = assay: Cytotoxicity against human HT-29 cells; format: functional; settings: read-out: ED50 (the source's name)
Bacillus subtilis [4] = assay: Antimicrobial activity against Bacillus subtilis at 1 ug/disk by disk assay; format: functional, organism-based
A549 = assay: Cytotoxicity against human A549 cells; format: functional; settings: read-out: ED50 (the source's name)
MCF7 = assay: Cytotoxicity against human MCF7 cells; format: functional; settings: read-out: ED50 (the source's name)

`Cc1cc(O)c(Cl)c(Oc2c(Cl)c(C)cc(O)c2Cl)c1Cl` was tested, and the Activity (Staphylococcus aureus [1]) was “Active”.
For `Cc1cc(O)c(Cl)c(Oc2c(Cl)c(C)cc(O)c2Cl)c1`, the Activity (Bacillus subtilis [2]) was “Active”.
With `COC1=CC(=O)c2c(cc(OC)c(C(C)C3=C(O)C(=O)c4cc(O)c(C(C)=O)c(O)c4C3=O)c2O)C1=O` (configuration not stated) [KIRSCHSTEININ] the Activity (Staphylococcus aureus [3]) was “Active”, the EC50 (HT-29) was 2.7 µg/mL (≈ 5.31 µM) and the Activity (Bacillus subtilis [4]) was “Active”. For the same compound, the EC50 (A549) was 3.1 µg/mL (≈ 6.1 µM) and the EC50 (MCF7) was 5.2 µg/mL (≈ 10.2 µM).
